Test results taken from the supplement of paper PMC6045584.
± gives the standard deviation of the averaged measurements.

Key:
[1] = compound: COc1cc2nccc(Oc3ccc(NC(=O)NC4CC4)c(Cl)c3)c2cc1C(N)=O [LENVATINIB]; assay: surviving fraction relative to DMSO-only wells; higher = less growth inhibition; conditions: exposure time: 5 days
In short: (§1)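 At 250–500 cells per well in 384-well plates, log-phase tumour cell lines were seeded and, 24 hours on, exposed continuously for five days to inhibitors at 0.5, 1, 5, 10, 50, 100, 500 and 1000 nM. Viability readout was CellTiter-Glo luminescence, reported as surviving fraction normalised to the median of DMSO-only wells.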

[2] = compound: Cn1c(=O)n(-c2ccc(C(C)(C)C#N)cc2)c2c3cc(-c4cnc5ccccc5c4)ccc3ncc21 [BEZ-235]; assay: as above; conditions: exposure time: 5 days
In short: as §1

Test System | surviving fraction ([1]; 0.5 nM) | surviving fraction ([1]; 1 nM) | surviving fraction ([1]; 5 nM) | surviving fraction ([1]; 10 nM) | surviving fraction ([1]; 50 nM) | surviving fraction ([1]; 100 nM) | surviving fraction ([1]; 500 nM) | surviving fraction ([1]; 1000 nM) | surviving fraction ([2]; 0.5 nM) | surviving fraction ([2]; 1 nM) | surviving fraction ([2]; 5 nM) | surviving fraction ([2]; 10 nM) | surviving fraction ([2]; 50 nM) | surviving fraction ([2]; 100 nM) | surviving fraction ([2]; 500 nM) | surviving fraction ([2]; 1000 nM)
MDAMB436 BREAST | 0.949 ± 0.032 | 1.01 ± 0.11 | 0.946 ± 0.04 | 0.976 ± 0.039 | 1.01 ± 0.11 | 0.907 ± 0.015 | 1.04 ± 0.077 | 0.932 ± 0.033 | 0.94 ± 0.084 | 0.898 ± 0.085 | 0.876 ± 0.078 | 0.852 ± 0.088 | 0.545 ± 0.016 | 0.51 ± 0.047 | 0.392 ± 0.022 | 0.356 ± 0.013
CAL51 BREAST | 0.974 ± 0.023 | 0.975 ± 0.011 | 0.983 ± 0.011 | 0.98 ± 0.031 | 0.973 ± 0.045 | 0.976 ± 0.022 | 0.853 ± 0.051 | 0.755 ± 0.0033 | 0.92 ± 0.025 | 0.958 ± 0.035 | 0.902 ± 0.086 | 0.894 ± 0.056 | 0.453 ± 0.032 | 0.279 ± 0.018 | 0.097 ± 0.005 | 0.0853 ± 0.0042
HOS BONE | 1.03 ± 0.012 | 1.067 ± 0.0047 | 1.03 ± 0.028 | 1.02 ± 0.025 | 1.06 ± 0.071 | 1.05 ± 0.047 | 1.02 ± 0.017 | 0.946 ± 0.0092 | 1.02 ± 0.034 | 1.05 ± 0.036 | 1.02 ± 0.014 | 1.01 ± 0.018 | 0.763 ± 0.034 | 0.591 ± 0.017 | 0.317 ± 0.015 | 0.285 ± 0.015
143B BONE | 0.992 ± 0.0085 | 1.018 ± 0.0064 | 1.04 ± 0.022 | 1.01 ± 0.027 | 1.04 ± 0.012 | 1.05 ± 0.015 | 1.05 ± 0.022 | 1.05 ± 0.013 | 1.03 ± 0.047 | 1.04 ± 0.047 | 1.031 ± 0.0028 | 1.0385 ± 0.00071 | 0.852 ± 0.033 | 0.735 ± 0.017 | 0.36 ± 0.017 | 0.336 ± 0.0028
CAL72 BONE | 1.14 ± 0.086 | 1.12 ± 0.046 | 1.14 ± 0.088 | 1.12 ± 0.062 | 1.16 ± 0.069 | 1.18 ± 0.12 | 1.01 ± 0.13 | 0.613 ± 0.051 | 1.05 ± 0.026 | 1.06 ± 0.041 | 1.07 ± 0.043 | 1.03 ± 0.041 | 0.754 ± 0.053 | 0.369 ± 0.021 | 0.142 ± 0.011 | 0.124 ± 0.0079
SUM149.B1*.S BREAST | 1.11 ± 0.031 | 1.15 ± 0.018 | 1.15 ± 0.03 | 1.11 ± 0.044 | 1.19 ± 0.029 | 1.15 ± 0.031 | 1.17 ± 0.052 | 1.14 ± 0.042 | 1.11 ± 0.041 | 1.12 ± 0.049 | 1.14 ± 0.038 | 1.12 ± 0.022 | 1.039 ± 0.0098 | 0.969 ± 0.072 | 0.376 ± 0.028 | 0.21 ± 0.0038
CHLA90 AUTONOMIC GANGLIA | 0.984 ± 0.039 | 0.999 ± 0.043 | 0.954 ± 0.05 | 1 ± 0.077 | 0.972 ± 0.049 | 0.939 ± 0.051 | 1.05 ± 0.043 | 1.04 ± 0.034 | 0.983 ± 0.078 | 1 ± 0.033 | 0.979 ± 0.057 | 0.947 ± 0.05 | 0.644 ± 0.046 | 0.428 ± 0.024 | 0.175 ± 0.0087 | 0.106 ± 0.0023
YAMATO SYNOVIAL | 1.18 ± 0.073 | 1.15 ± 0.05 | 1.13 ± 0.12 | 1.06 ± 0.072 | 1.1 ± 0.062 | 1.14 ± 0.13 | 0.953 ± 0.08 | 0.949 ± 0.017 | 1.28 ± 0.087 | 1.26 ± 0.12 | 1.34 ± 0.084 | 1.12 ± 0.048 | 0.923 ± 0.043 | 0.849 ± 0.12 | 0.47 ± 0.038 | 0.429 ± 0.016
LM7 BONE | 0.974 ± 0.11 | 0.951 ± 0.066 | 1.03 ± 0.074 | 0.973 ± 0.086 | 1.07 ± 0.12 | 1.03 ± 0.041 | 0.939 ± 0.022 | 0.952 ± 0.11 | 0.941 ± 0.042 | 1 ± 0.1 | 1.02 ± 0.094 | 1.07 ± 0.062 | 0.975 ± 0.077 | 0.845 ± 0.063 | 0.366 ± 0.016 | 0.312 ± 0.024
HCT15 LARGE INTESTINE | 1.09 ± 0.031 | 1.08 ± 0.039 | 1.08 ± 0.031 | 1.09 ± 0.063 | 1.13 ± 0.052 | 1.17 ± 0.061 | 1.12 ± 0.028 | 1.14 ± 0.021 | 1.04 ± 0.026 | 1.03 ± 0.057 | 1.11 ± 0.041 | 1.1 ± 0.033 | 0.655 ± 0.035 | 0.525 ± 0.0089 | 0.249 ± 0.027 | 0.209 ± 0.0044
